From ChEMBL document CHEMBL4219105, “Novel polyamine-based Histone deacetylases-Lysine demethylase 1 dual binding inhibitors” (Bioorg Med Chem Lett, 2018)

Tests used:
[1] = target: T1, Histone deacetylase (Homo sapiens) (UniProt Q13547+O15379+Q9UBN7+Q92769+Q9UQL6+Q8WUI4+Q9BY41+Q96DB2+P56524+Q9UKV0+Q969S8); test: Inhibition of HDAC in human MCF7 cell nuclear extract using acetylated lysine as substrate at 70 uM after 1 hr by colorimetric analysis relative to control; assay type: protein assay
[2] = target: T2, HDAC1/REST corepressor 3 (Homo sapiens, UniProt Q13547+Q9P2K3)
T2 sequence (Q13547 whole entry, other chains not shown): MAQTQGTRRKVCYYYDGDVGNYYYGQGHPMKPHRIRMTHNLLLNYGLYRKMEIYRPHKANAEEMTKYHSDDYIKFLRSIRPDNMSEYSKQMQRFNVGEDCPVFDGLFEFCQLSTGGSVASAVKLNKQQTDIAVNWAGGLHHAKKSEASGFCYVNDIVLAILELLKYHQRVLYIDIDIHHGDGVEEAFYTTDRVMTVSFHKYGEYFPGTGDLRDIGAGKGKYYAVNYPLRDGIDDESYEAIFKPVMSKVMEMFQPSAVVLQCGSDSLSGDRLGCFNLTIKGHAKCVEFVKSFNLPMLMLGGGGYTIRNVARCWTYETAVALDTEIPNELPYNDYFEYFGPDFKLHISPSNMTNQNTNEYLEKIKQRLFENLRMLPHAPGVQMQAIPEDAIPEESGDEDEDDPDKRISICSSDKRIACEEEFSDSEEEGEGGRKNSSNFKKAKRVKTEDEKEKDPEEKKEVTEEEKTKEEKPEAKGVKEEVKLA
Description: (§1) Inhibition of HDAC1/CoREST3 in HEK293 whole cell extract using fluorescent acetylated histone peptide as substrate after 60 mins by fluorescence based assay

[3] = tested on: MCF7; test: Cytotoxic activity against human MCF7 cells assessed as reduction in cell viability at 70 uM after 24 hrs by MTT assay relative to control; assay type: functional
[4] = tested on: MCF7; test: cells; assay type: functional, cell-based; conditions: Homo sapiens, MCF7, 24 h
Description: Cytotoxic activity against human MCF7 cells after 24 hrs by MTT assay

[5] = target: T3, Lysine-specific histone demethylase 1A/REST corepressor (Homo sapiens, UniProt O60341+Q9P2K3)
Description: (§2) Inhibition of human recombinant LSD1/CoREST3 expressed in Escherichia coli using monomethylatedH3meK4 peptide as substrate preincubated for 15 mins followed by substrate addition measured after 12 mins by fluorescence based assay

[6] = target: T3, Lysine-specific histone demethylase 1A/REST corepressor; remark: listed apart in the source
Description: as §2

[7] = target: T2, HDAC1/REST corepressor 3; remark: listed apart in the source
Description: as §1

[8] = tested on: MCF7; test: Cytotoxic activity against human MCF7 cells assessed as reduction in cell viability at 4 uM after 24 hrs by MTT assay relative to control; assay type: functional
[9] = tested on: MCF7; test: Cytotoxic activity against human MCF7 cells assessed as reduction in cell viability at 35 uM after 24 hrs by MTT assay relative to control; assay type: functional
[10] = target: T1, Histone deacetylase (Homo sapiens); test: Inhibition of HDAC in human MCF7 cell nuclear extract using acetylated lysine as substrate at 17 uM after 1 hr by colorimetric analysis relative to control; assay type: protein assay
[11] = tested on: MCF7; test: Cytotoxic activity against human MCF7 cells assessed as reduction in cell viability at 16 uM after 24 hrs by MTT assay relative to control; assay type: functional

Cl.Cl.N[C@@H]1C[C@H]1c1ccc(NC(=O)CCC(=O)NCCCNCCCNC(=O)c2ccc(NC(=O)CCCCCCC(=O)NO)cc2)cc1
inhibition [1]: 35.8% | Ki [2]: 0.0269 µM | Activity [3]: 52% | IC50 [4]: 60.2 µM | IC50 [5]: 2.4 µM

Cl.Cl.Cl.N[C@@H]1C[C@H]1c1ccc(NC(=O)CCC(=O)NCCCCCCNCCCCCCCCNCCCCCCNC(=O)c2ccc(NC(=O)CCCCCCC(=O)NO)cc2)cc1
IC50 [6]: Nd(Insoluble) | Ki [7]: Nd(Insoluble)

Cl.Cl.Cl.N[C@@H]1C[C@H]1c1ccc(NC(=O)CCC(=O)NCCCNCCCCNCCCNC(=O)c2ccc(NC(=O)CCCCCCC(=O)NO)cc2)cc1
Ki [2]: 0.0425 µM | Activity [8]: 16.3% | Activity [3]: 68.6% | Activity [9]: 52.7% | IC50 [4]: 39.6 µM | inhibition [10]: 50.2% | IC50 [5]: 3.85 µM

O=C(CCCCCCC(=O)Nc1ccccc1)NO [VORINOSTAT]
Activity [11]: 49.3% | Activity [8]: 20.8% | Activity [3]: 56.6%
